In patent US20040209775A1, “Herbicidal composition” (priority 2001, published 2004):

Key:
Test in all cases: Post-emergence test, greenhouse
Type in all cases: in vivo
Galium aparine = conditions: evaluation 20 days after application
Description: (§1) The herbicidal action to be expected We for a given combination of two herbicides can be calculated as follows (see COLBY, S. R., “Calculating synergistic and antagonistic response of herbicide combinations”, Weeds 15, pages 20-22, 1967):
(§2) Post-emergence application of mixtures of a herbicide of formula I wherein R is CH3; R1 is 4-fluorine; R2 is 3-acetonitrile; and R3 and R4 are hydrogen (=herbicide no. 11) with the co-herbicide dicamba at 500 g/ha and 30 g/ha, respectively, in Table B1, and of a herbicide of formula I wherein R is CH3; R1 is 4-fluorine; R2 is 3-acetonitrile; and R3 and R4 are hydrogen (=herbicide no. I1) with the co-herbicide triasulfuron at 250 g/ha and 3.75 g.ha, respectively, in Table B2.
(§3) The test plants are grown to the 2- to 3-leaf stage in plastics pots under greenhouse conditions. A standard soil is used as cultivation substrate. At the 2- to 3-leaf stage, the herbicides are applied to the test plants on their own and as a mixture. The application is carried out using an aqueous suspension of the test compounds in 500 litres of water/ha. The rates of application depend on the optimum doses ascertained under field conditions and greenhouse conditions. […]

winter wheat = test system: winter wheat
Description: as §1, §2, §3

winter barley = conditions: I1 500, dicamba 30, mixture 500 + 30 g a.i./ha, evaluation 20 days after application
Procedure: (§4) The herbicidal action to be expected We for a given combination of two herbicides can be calculated as follows (see COLBY, S. R., “Calculating synergistic and antagonistic response of herbicide combinations”, Weeds 15, pages 20-22, 1967): […] Post-emergence application of mixtures of a herbicide of formula I wherein R is CH3; […] R2 is 3-acetonitrile; and R3 and R4 are hydrogen (=herbicide no. […] The test plants are grown to the 2- to 3-leaf stage in plastics pots under greenhouse conditions. A standard soil is used as cultivation substrate. At the 2- to 3-leaf stage, the herbicides are applied to the test plants on their own and as a mixture. The application is carried out using an aqueous suspension of the test compounds in 500 litres of water/ha. The rates of application depend on the optimum doses ascertained under field conditions and greenhouse conditions.

Stellaria media = conditions: I1 500, dicamba 30, mixture 500 + 30 g a.i./ha, evaluation 20 days after application
Procedure: as §4

Veronica persica = conditions: I1 500, dicamba 30, mixture 500 + 30 g a.i./ha, evaluation 20 days after application
Procedure: as §4

Raphnus raphanistrum = conditions: I1 500, dicamba 30, mixture 500 + 30 g a.i./ha, evaluation 20 days after application
Procedure: as §4

Viola tricolor = conditions: I1 500, dicamba 30, mixture 500 + 30 g a.i./ha, evaluation 20 days after application
Procedure: as §4

Kochia scoparia = conditions: I1 250, triasulfuron 3.5, mixture 250 + 3.75 g a.i./ha, evaluation 20 days after application
Description: as §1, §2, §3

Capsella bursa-pastoris = conditions: I1 250, triasulfuron 3.5, mixture 250 + 3.75 g a.i./ha, evaluation 20 days after application
Description: as §1, §2, §3

Matricaria chamomilla = conditions: I1 250, triasulfuron 3.5, mixture 250 + 3.75 g a.i./ha, evaluation 20 days after application
Description: as §1, §2, §3

hard wheat = conditions: I1 250, triasulfuron 3.5, mixture 250 + 3.75 g a.i./ha, evaluation 10 days after application
Description: as §1, §2, §3

Polygonum convolvulus = conditions: I1 250, triasulfuron 3.5, mixture 250 + 3.75 g a.i./ha, evaluation 20 days after application
Description: as §1, §2, §3

Lamium purpureum = conditions: I1 250, triasulfuron 3.5, mixture 250 + 3.75 g a.i./ha, evaluation 20 days after application
Description: as §1, §2, §3

| SMILES | % action, Galium aparine (Galium aparine; I1 500, dicamba 30, mixture 500 + 30 g a.i./ha) [%] | % action, Wheat (winter wheat; I1 500, dicamba 30, mixture 500 + 30 g a.i./ha, evaluation 20 days after application, 100%=plant has died) [%] | % action, Barley (winter barley) [%] | % action, Stellaria media (Stellaria media) [%] | % action, Veronica persica (Veronica persica) [%] | % action, Raphnus raphan. (Raphnus raphanistrum) [%] | % action, Viola tric. (Viola tricolor) [%] | % action, Kochia scop. (Kochia scoparia) [%] | % action, Caps. bursa-past. (Capsella bursa-pastoris) [%] | % action, Matr. cham. (Matricaria chamomilla) [%] | % action, Gal. apar. (Galium aparine; I1 250, triasulfuron 3.5, mixture 250 + 3.75 g a.i./ha) [%] | % action, H. wheat (hard wheat) [%] | % action, W. wheat (winter wheat; I1 250, triasulfuron 3.5, mixture 250 + 3.75 g a.i./ha, evaluation 10 days after application) [%] | % action, Polyg. conv. (Polygonum convolvulus) [%] | % action, Lamium purpur. (Lamium purpureum) [%] |
| --- | --- | --- | --- | --- | --- | --- | --- | --- | --- | --- | --- | --- | --- | --- | --- |
| COc1c(Cl)ccc(Cl)c1C(=O)O [dicamba] | 40 | 0 | 10 | 20 | 20 | 20 | 0 | – | – | – | – | – | – | – | – |
| COc1nc(C)nc(NC(=O)NS(=O)(=O)c2ccccc2OCCCl)n1 [triasulfuron] | – | – | – | – | – | – | – | 95 | 98 | 95 | 70 | 0 | 0 | 80 | 90 |
